What was measured:
[1] = hygroscopic stability of the complexes; type: physicochemical; conditions: solid complex; weight changes of the active ingredient during manufacture of capsules or tablets
[2] = crystallinity of the complexes; type: physicochemical; conditions: solid complex; i.e., substantially free of amorphous material

SMILES | hygroscopic stability [1] | crystallinity [2]
COCC(=O)NC/C=C/c1ccc2ncnc(Nc3ccc(Oc4ccc(C)nc4)c(C)c3)c2c1.O=C(O)CC(=O)O.O=C(O)CC(=O)O [di-malonate, Di-malonate Complex of E-2-Methoxy-N-(3-{4-[3-methyl-4-(6-methyl-pyridin-3-yloxy)-phenylamino]-quinazolin-6-yl}-allyl)-acetamide] | substantially hygroscopically stable | high crystallinity
COCC(=O)NC/C=C/c1ccc2ncnc(Nc3ccc(Oc4ccc(C)nc4)c(C)c3)c2c1.COCC(=O)NC/C=C/c1ccc2ncnc(Nc3ccc(Oc4ccc(C)nc4)c(C)c3)c2c1.O=C(O)CCC(=O)O.O=C(O)CCC(=O)O.O=C(O)CCC(=O)O [sesquisuccinate, Sesquisuccinate Complex of E-2-Methoxy-N-(3-{4-[3-methyl-4-(6-methyl-pyridin-3-yloxy)-phenylamino]-quinazolin-6-yl}-allyl)-acetamide] | substantially hygroscopically stable | high crystallinity
